Values quoted from earlier work in patent publication US5284873A (priority 1991, dated 1994).

Tested on: prostate
Settings: treatment of the α-receptors with antagonists

Row | Compound | improvement in prostate patients
1 | COc1cc2nc(N3CCN(C(=O)c4ccco4)CC3)nc(N)c2cc1OC [prazosin] | effective improvement
2 | CC(COc1ccccc1)N(CCCl)Cc1ccccc1 (centres unmarked) [phenoxybenzamine] | effective improvement
